{"source": "paper PMC4779956", "about": "(Journal of medicinal chemistry, 2015)", "key": {"[1]": {"target": "T1, ERα (Homo sapiens, UniProt P03372)", "T1 sequence (P03372 1-595)": "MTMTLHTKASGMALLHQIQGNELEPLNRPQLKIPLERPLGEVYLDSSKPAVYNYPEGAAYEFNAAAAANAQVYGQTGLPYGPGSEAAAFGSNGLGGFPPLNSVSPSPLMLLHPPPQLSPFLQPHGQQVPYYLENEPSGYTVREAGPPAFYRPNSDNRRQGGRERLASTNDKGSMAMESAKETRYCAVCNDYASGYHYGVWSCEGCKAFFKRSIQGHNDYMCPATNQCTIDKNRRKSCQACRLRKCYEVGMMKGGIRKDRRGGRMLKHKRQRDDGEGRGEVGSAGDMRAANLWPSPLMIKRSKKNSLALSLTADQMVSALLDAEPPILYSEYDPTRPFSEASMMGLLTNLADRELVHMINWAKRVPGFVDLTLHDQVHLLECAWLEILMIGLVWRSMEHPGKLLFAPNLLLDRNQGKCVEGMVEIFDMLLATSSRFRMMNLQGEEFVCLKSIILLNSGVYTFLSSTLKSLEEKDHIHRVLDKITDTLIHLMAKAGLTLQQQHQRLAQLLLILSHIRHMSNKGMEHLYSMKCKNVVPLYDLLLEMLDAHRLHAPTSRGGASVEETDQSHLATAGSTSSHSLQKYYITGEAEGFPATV", "experiment": "ERE-luciferase reporter assay", "type": "cell-based", "conditions": "for Efficacy (% E2): MCF-7:ws8 cells, normalized to Ctrl (0%) and E2 1 nM (100%)"}, "[2]": {"tested_on": "MCF-7:5C cells", "experiment": "MCF-7:5C cell viability assay", "type": "cell-based, human"}, "[3]": {"target": "T1, ERα", "experiment": "Antagonism of E2-induced ERE-luciferase activation", "type": "cell-based", "conditions": "MCF-7:ws8, in presence of 0.1 nM E2, ShERPA 100-500 nM, 18 h"}, "[4]": {"target": "T2, ERα-LBD/SRC3 complex (Homo sapiens, UniProt P03372)", "T2 sequence (P03372 311-547 limits assumed)": "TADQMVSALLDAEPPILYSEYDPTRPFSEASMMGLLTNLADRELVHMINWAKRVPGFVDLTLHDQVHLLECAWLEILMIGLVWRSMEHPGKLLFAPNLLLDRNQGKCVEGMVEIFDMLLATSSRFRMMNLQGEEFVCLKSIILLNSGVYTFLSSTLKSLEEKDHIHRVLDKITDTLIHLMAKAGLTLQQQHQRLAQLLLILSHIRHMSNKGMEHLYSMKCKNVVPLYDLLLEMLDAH", "T2 sequence (Q9Y6Q9 627-829 partner limits assumed)": "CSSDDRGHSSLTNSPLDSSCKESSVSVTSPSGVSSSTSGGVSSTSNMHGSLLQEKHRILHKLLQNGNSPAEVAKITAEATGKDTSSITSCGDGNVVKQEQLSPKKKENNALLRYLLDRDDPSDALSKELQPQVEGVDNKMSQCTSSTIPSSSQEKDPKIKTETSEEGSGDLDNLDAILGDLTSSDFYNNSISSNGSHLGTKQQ", "experiment": "TR-FRET SRC3 titration", "type": "biochemical", "conditions": "20 μM ligand"}, "[5]": {"target": "T2, ERα-LBD/SRC3 complex", "experiment": "TR-FRET ligand titration in presence of 10 nM E2", "type": "biochemical", "conditions": "in presence of 10 nM E2, 100 nM SRC3"}, "[6]": {"tested_on": "T47D:A18/PKCα tumors", "experiment": "T47D:A18/PKCα tamoxifen-resistant xenograft", "type": "in vivo, mice", "conditions": "100 mg/kg oral gavage daily, within two weeks"}, "[7]": {"experiment": "Uterine weight in xenograft study", "type": "in vivo, mice", "conditions": "T47D:A18/PKCα xenograft study, 100 mg/kg oral daily"}, "[8]": {"tested_on": "T47D:A18/PKCα tumors", "conditions": "T47D:A18/PKCα model; cited from earlier work"}, "[9]": {"conditions": "T47D:A18/PKCα xenograft study; cited from earlier work"}, "[10]": {"tested_on": "T47D:A18-TAM1", "conditions": "T47D:A18-TAM1 model; cited from earlier work"}}}
{"molecule": "Cc1ccc(C(=O)c2c(-c3ccc(O)cc3)sc3cc(O)ccc23)cc1", "note": "[Compound 14a]", "values": [{"measurement": "Efficacy (% E2)", "setting": "[1]", "result": 100, "unit": "% E2"}]}
{"molecule": "O=C(c1ccc(C(F)(F)F)cc1)c1c(-c2ccc(F)cc2)sc2cc(O)ccc12", "note": "[Compound 14b, (2-(4-fluorophenyl)-6-hydroxybenzo[b]thiophen-3-yl)(4-(trifluoromethyl)phenyl)methanone]", "values": [{"measurement": "Efficacy (% E2)", "setting": "[1]", "result": 100, "unit": "% E2"}]}
{"molecule": "O=C(c1ccc(C(F)(F)F)cc1)c1c(-c2ccc(Cl)cc2)sc2cc(O)ccc12", "note": "[Compound 14c, (2-(4-chlorophenyl)-6-hydroxybenzo[b]thiophen-3-yl)(4-(trifluoromethyl)phenyl)methanone]", "values": [{"measurement": "Efficacy (% E2)", "setting": "[1]", "result": 100, "unit": "% E2"}]}
{"molecule": "Oc1ccc(Oc2c(-c3ccc(F)cc3)sc3cc(O)ccc23)cc1", "note": "[Compound 19, 2-(4-fluorophenyl)-3-(4-hydroxyphenoxy)benzo[b]thiophen-6-ol]", "values": [{"measurement": "Efficacy (% E2)", "setting": "[1]", "result": 100, "unit": "% E2"}]}
{"molecule": "CS(=O)(=O)c1ccc(C(=O)c2sc3cc(O)ccc3c2-c2ccc(F)cc2)cc1", "note": "[Compound 21a, (3-(4-fluorophenyl)-6-hydroxybenzo[b]thiophen-2-yl)(4-(methylsulfonyl)phenyl)methanone]", "values": [{"measurement": "Efficacy (% E2)", "setting": "[1]", "result": 100, "unit": "% E2"}]}
{"molecule": "O=C(c1ccc(O)cc1)c1sc2cc(O)ccc2c1-c1ccc(F)cc1", "note": "[Compound 21b, (3-(4-fluorophenyl)-6-hydroxybenzo[b]thiophen-2-yl)(4-hydroxyphenyl)methanone]", "values": [{"measurement": "Efficacy (% E2)", "setting": "[1]", "result": 100, "unit": "% E2"}]}
{"molecule": "O=C(c1sc2cc(O)ccc2c1-c1ccc(F)cc1)C1CCCCC1", "note": "[Compound 21g, Cyclohexyl(3-(4-fluorophenyl)-6-hydroxybenzo[b]thiophen-2-yl)methanone]", "values": [{"measurement": "Efficacy (% E2)", "setting": "[1]", "result": 100, "unit": "% E2"}, {"measurement": "Inhibition of cell growth relative to E2 %", "setting": "[2]; 10 nM, 9 day, control 0 %, E2 100 %, 0.01 µM", "result": 100, "unit": "%"}]}
{"molecule": "C#Cc1ccc(C(=O)c2sc3cc(O)ccc3c2-c2ccc(F)cc2)cc1", "note": "[Compound 23, (4-ethynylphenyl)(3-(4-fluorophenyl)-6-hydroxybenzo[b]thiophen-2-yl)methanone]", "values": [{"measurement": "EC50", "setting": "[1]", "result": 5, "unit": "nM"}, {"measurement": "Efficacy (% E2)", "setting": "[1]", "result": 65, "unit": "% E2"}, {"measurement": "Antagonism of E2 induced ERE activation", "setting": "[3]", "result": "dose dependent reduction in E2 luciferase activity"}, {"measurement": "Maximal FRET signal relative to E2-liganded ERα-LBD/SRC3 complex", "setting": "[4]", "result": "less than 50%"}, {"measurement": "Effect on FRET signal on ligand titration", "setting": "[5]", "result": "reduced FRET signal"}, {"measurement": "Tumor size versus control tumors", "setting": "[6]", "result": "half the size of control tumors"}]}
{"molecule": "O=C(c1ccc(C(F)(F)F)cc1)c1sc2cc(O)ccc2c1-c1ccc(F)cc1", "note": "[Compound 26a, (3-(4-fluorophenyl)-6-hydroxybenzo[b]thiophen-2-yl)(4-(trifluoromethyl)phenyl)methanone]", "values": [{"measurement": "Efficacy (% E2)", "setting": "[1]", "result": 85, "unit": "% E2"}, {"measurement": "Tumor size versus control tumors", "setting": "[6]", "result": "half the size of control tumors"}, {"measurement": "Uterine weight versus vehicle control", "setting": "[7]", "result": "no significant increase in uterine weight compared to vehicle control mice"}]}
{"molecule": "N#Cc1ccc(C(=O)c2sc3cc(O)ccc3c2-c2ccc(F)cc2)cc1", "note": "[Compound 26b, 4-(3-(4-fluorophenyl)-6-hydroxybenzo[b]thiophene-2-carbonyl)benzonitrile]", "values": [{"measurement": "Efficacy (% E2)", "setting": "[1]", "result": 100, "unit": "% E2"}]}
{"molecule": "Oc1ccc(Oc2sc3cc(O)ccc3c2-c2ccc(F)cc2)cc1", "note": "[Compound 30a, 3-(4-fluorophenyl)-2-(4-hydroxyphenoxy)benzo[b]thiophen-6-ol]", "values": [{"measurement": "Efficacy (% E2)", "setting": "[1]", "result": 60, "unit": "% E2"}, {"measurement": "Antagonism of E2 induced ERE activation", "setting": "[3]", "result": "dose dependent reduction in E2 luciferase activity"}, {"measurement": "Maximal FRET signal relative to E2-liganded ERα-LBD/SRC3 complex", "setting": "[4]", "result": "less than 50%"}, {"measurement": "Effect on FRET signal on ligand titration", "setting": "[5]", "result": "reduced FRET signal"}, {"measurement": "Xenograft tumor regression", "setting": "[8]", "result": "dramatic regression"}, {"measurement": "Uterine weight", "setting": "[9]", "result": "not accompanied by a significant increase in uterine weight"}, {"measurement": "Xenograft tumor regression", "setting": "[10]", "result": "dramatic regression"}]}
{"molecule": "Oc1ccc2c(-c3ccc(F)cc3)c(Oc3ccc(Cl)cc3)sc2c1", "note": "[Compound 30b, 2-(4-chlorophenoxy)-3-(4-fluorophenyl)benzo[b]thiophen-6-ol]", "values": [{"measurement": "Efficacy (% E2)", "setting": "[1]", "result": 70, "unit": "% E2"}, {"measurement": "Antagonism of E2 induced ERE activation", "setting": "[3]", "result": "dose dependent reduction in E2 luciferase activity"}]}
{"molecule": "Oc1ccc2c(-c3ccc(F)cc3)c(Oc3ccc(F)cc3)sc2c1", "note": "[Compound 30c, 2-(4-fluorophenoxy)-3-(4-fluorophenyl)benzo[b]thiophen-6-ol]", "values": [{"measurement": "Efficacy (% E2)", "setting": "[1]", "result": 100, "unit": "% E2"}]}
{"molecule": "Oc1ccc2c(-c3ccc(F)cc3)c(Oc3ccc(F)c(F)c3)sc2c1", "note": "[Compound 30d, 2-(3,4-difluorophenoxy)-3-(4-fluorophenyl)benzo[b]thiophen-6-ol]", "values": [{"measurement": "Efficacy (% E2)", "setting": "[1]", "result": 100, "unit": "% E2"}]}
{"molecule": "C[C@]12CC[C@@H]3c4ccc(O)cc4CC[C@H]3[C@@H]1CC[C@@H]2O", "note": "[Compound E2, estradiol, reference compound]", "values": [{"measurement": "Reduction of cell viability compared to vehicle control", "setting": "[2]; 9 days", "result": "approximately 60%"}]}
